Assay results published in article PMC9760738, “Pharmacokinetics, absorption, distribution, metabolism and excretion of the MEK inhibitor zapnometinib in rats” (Frontiers in Pharmacology, 2022).

What was measured:
[1] = from other nonclinical studies; cited from earlier work
[2] = QWBA tissue radioactivity, single oral 30 mg/kg, female partially pigmented rats (Group 3); Table 6 columns c2-c8 = 0.5, 2, 4, 8, 24, 72, 168 h; type: in vivo, rat; conditions: 2 h
Protocol: (§1) The whole-body autoradiography techniques by Ullberg and Larsson was used in this study ([Ullberg and Larsson 1981]). Following a single oral administration of [^14C]-zapnometinib to seven male and seven female partially pigmented rats (Group 3) and four male albino rats (Group 4), one animal per sex (where appropriate) was killed at the following time points post dose: Group 3 (pigmented): 0.5, 2, 4, 8, 24, 72, and 168 h, Group 4 (albino): 2, 24, 72 and 168 h. At sacrifice, each rat was anaesthetized with isoflurane and a blood sample (ca 5 ml) was collected by cardiac puncture into a tube containing K2EDTA anticoagulant. Blood was centrifuged at 2000 ×g for 10 min at 4°C to obtain plasma, which was transferred into plain tubes pending measurement of radioactivity concentration. The blood cells were also retained for analysis.
(§2) The rat carcasses were immediately attached to a plate and frozen in a bath of n-heptane and solid CO2 at ca –80°C and then stored at –20 ± 10°C until taken for sectioning. […] [^14C]-Blood standards containing six different known concentrations of radioactivity were used to construct the calibration line for the quantitative determination of tissue concentrations of radioactivity. […] The electronic images of all sections were analyzed at Labcorp–Huntingdon using a validated image analysis package (Seescan Densitometry software, version 2.0). […]

[3] = Plasma protein binding assay, human plasma; type: in vitro ADME; conditions: data not shown
[4] = QWBA tissue radioactivity, single oral 30 mg/kg, male partially pigmented rats (Group 3); 0.5, 2, 4, 8, 24, 72, 168 h; type: in vivo, rat
Protocol: as §1, §2

[5] = Plasma protein binding assay, dog plasma; type: in vitro ADME; conditions: data not shown
[6] = Plasma protein binding assay, rat plasma; type: in vitro ADME; conditions: data not shown

O=C(O)c1ccc(F)c(F)c1Nc1ccc(I)cc1Cl [zapnometinib, 2-(2-Chloro-4-iodophenylamino)-3,4-difluorobenzoic acid]
No observed adverse effect level [1]: 100 mg/kg | Radioactivity in all remaining tissues [2]: ≤ 74.4 µg equivs/g | Protein binding [3]: high protein binding | Unbound fraction [3]: very low | Radioactivity in all remaining tissues ([4]; 2 h, male): ≤ 70.0 μg equivs/g | Penetration into the brain ([4]; whole body autoradiography): low | Protein binding [5]: high protein binding | Unbound fraction [5]: very low | Protein binding [6]: high protein binding | Unbound fraction [6]: very low
